{
  "source": "patent US20240092741A1",
  "about": "“COMPOSITION FOR PREVENTION OR TREATMENT OF NEUROFIBROMATOSIS TYPE 2 SYNDROME” (PRG S&TECH INC., priority 2021, published 2024)",
  "key": {"normal fibroblasts": {"tested_on": "normal fibroblasts", "test": "MTT cell viability assay in normal fibroblasts", "assay_type": "cell-based, human", "settings": "10 μM, 48 h (FIG. 3)", "procedure": "(§1) To measure cell viability, MTT (3-(4,5-dimethylthiazol-2-yl)-2,5-diphenyltetrazolium bromide) assay was used. In other words, the cells were seeded in 96-well plates and treated with the indicated chemicals for a predetermined time. After removing the medium, 200 μl of MTT solution (0.5 mg/ml) dissolved in PBS was added to each well. Plates were then cultured at 37° C. for 4 hours, the MTT solution was removed, the precipitated substances were dissolved using a solution (DMSO:ethanol=1:1), and an amount of formazan dye produced was quantified by measuring the absorbance at 560 nm using an ELISA microplate reader (Thermo Fisher Scientific, MA, USA)."}, "HEI-193 cells [1]": {"tested_on": "HEI-193 cells", "test": "MTT cell viability assay in HEI-193 cells", "assay_type": "cell-based, human", "settings": "10 μM, 48 h", "procedure": "as §1"}, "RKIP": {"tested_on": "RKIP", "test": "RKIP expression by Western blotting in HEI-193 cells", "assay_type": "cell-based, human", "settings": "compounds 10 μM, 24 h (FIG. 1A) or 72 h (FIG. 2), Western blot", "procedure": "(§2) Cells were harvested and lysed using RIPA buffer [50 mM Tris-Cl, pH 7.5, 150 mM NaCl, 1% NP-40, 0.1% SDS, and 10% sodium deoxycholate] to examine cellular signaling. Protein concentrations in samples were measured using Bio-Rad (Hercules, CA, USA) protein assay kits and BSA standards. The samples (20 μg protein per lane) were separated by sodium dodecyl sulfate-polyacrylamide gel electrophoresis (SDS-PAGE), transferred to Immobilon-P^SQ transfer membranes (Millipore Corp., MA, USA), which were then cultured with 3% skim milk-containing TBS-T buffer (Tris-HCl-based buffer containing 20 mM Tris pH 7.6, 150 mM NaCl, and 0.05% Tween 20) for 1 hour at room temperature and then reacted with primary antibody in TBS-T overnight at 4° C. The membranes were then washed and reacted with secondary horseradish peroxidase (HRP)-conjugated antibodies [goat anti-mouse, goat anti-rabbit, and mouse anti-goat antibodies (Pierce, Thermo Fisher Scientific, Inc., Rockford, IL, USA)] in TBS-T at room temperature for 2 hours. The blots were detected using an HRP-conjugated secondary antibody using ECL kit (Intron, Seoul, Korea).\nBecause RKIP degradation in NF2 cells is clearly known (Mol Cancer Ther 17, 2271-2284, 2018), after first treating 260 novel synthetic compounds, RKIP expression was measured in HEI-193, a human NF2 cell line."}, "[2]": {"target": "T1, interaction between TβR1 and RKIP (Homo sapiens, UniProt P30086+P36897)", "T1 construct": "host or cells: HEK293 (TβR1 lysate)", "T1 sequence (P30086 whole entry)": "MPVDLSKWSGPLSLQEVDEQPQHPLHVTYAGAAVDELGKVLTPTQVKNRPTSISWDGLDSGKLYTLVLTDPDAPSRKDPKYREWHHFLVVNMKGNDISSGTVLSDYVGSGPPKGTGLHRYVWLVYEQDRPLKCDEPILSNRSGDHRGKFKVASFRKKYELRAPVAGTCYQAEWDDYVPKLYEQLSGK", "T1 sequence (P36897 34-503)": "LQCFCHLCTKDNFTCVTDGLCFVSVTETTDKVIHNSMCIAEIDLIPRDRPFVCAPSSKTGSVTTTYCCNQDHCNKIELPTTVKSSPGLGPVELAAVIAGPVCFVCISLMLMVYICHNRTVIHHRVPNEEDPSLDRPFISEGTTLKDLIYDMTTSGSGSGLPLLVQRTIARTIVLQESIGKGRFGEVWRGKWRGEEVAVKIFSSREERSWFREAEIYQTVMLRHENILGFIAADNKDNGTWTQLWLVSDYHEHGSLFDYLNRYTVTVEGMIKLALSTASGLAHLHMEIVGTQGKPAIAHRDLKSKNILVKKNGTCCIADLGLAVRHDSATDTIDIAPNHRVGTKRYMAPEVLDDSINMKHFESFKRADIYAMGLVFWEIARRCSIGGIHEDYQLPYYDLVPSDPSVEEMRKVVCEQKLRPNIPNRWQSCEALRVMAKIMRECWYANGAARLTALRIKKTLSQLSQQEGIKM", "test": "GST-pull down assay of TβR1-RKIP interaction", "assay_type": "binding", "settings": "GST-RKIP beads with TβR1-transfected HEK293 lysates, 5 and 10 μM, 2 h (FIG. 5B)", "procedure": "For protein-protein interaction analysis, glutathione S-transferase (GST)-pull down assay was performed. For GST-pull down, agarose-bead-conjugated GST-RKIP recombinant protein was reacted with FLAG-tagged TβR1-transfected HEK 293 cell lysates in PBS buffer at 4° C. for 1 hour. Immunoprecipitation (IP) assay was performed by reacting with FLAG-tagged TβR1- or HA-tagged RKIP-transfected HEI-193 cell lysates in PBS buffer. Whole lysates were reacted with appropriate primary antibodies at 4° C. for 2 hours and with agarose-bead-conjugated protein A/G (Invitrogen, Carlsbad, CA, USA) for 2 hours. After centrifugation, the precipitates were washed twice with RIPA buffer and subjected to SDS-PAGE and western blotting analysis."}, "HEI-193 cells [3]": {"tested_on": "HEI-193 cells", "test": "Western blotting of marker proteins in HEI-193 cells", "assay_type": "cell-based, human", "settings": "HEI-193 cells pretreated 6 h with leptomycin B 2 ng/ml or MG132 5 μM, then 10 μM compounds 24 h (FIGS. 14F, 14G)", "procedure": "as §2"}, "schwannoma": {"tested_on": "schwannoma", "settings": "Mol Cancer Ther 17, 2271-2284, 2018; cited from earlier work"}, "mouse schwannoma cells [4]": {"tested_on": "mouse schwannoma cells", "test": "Tumorsphere formation assay, mouse schwannoma cells", "assay_type": "cell-based", "settings": "10 μM, DMEM/F12 medium", "procedure": "(§3) For tumorsphere formation assay, Hei-193 or mouse schwannoma cells (3×10^6 cells/plate) were cultured in DMEM/F12 medium (supplemented with 2% B27 and 40 ng/ml bFGF) and added with the indicated chemicals on non-coated plates for indicated days."}, "SOX2": {"tested_on": "SOX2", "test": "SOX2 localization by IF and cell fractionation in HEI-193 cells", "assay_type": "cell-based, human", "settings": "2 μM, 24 h, IF and cell fractionation (FIGS. 15C, 15D)", "procedure": "Cells were seeded on cover glass, washed with PBS, fixed with 4% paraformaldehyde (PFA) for 30 minutes at room temperature, and then permeabilized with 0.2% Triton X-100 at room temperature for 5 minutes. After treatment with blocking buffer [3% goat serum diluted in PBS] for 1 hour, cells were reacted with the specified antibody in the blocking buffer overnight at 4° C. Finally, the cells were reacted with secondary antibodies conjugated with FITC or rhodamine at 4° C. for 7 hours. The nuclei were stained with DAPI at room temperature for 10 minutes. After the cells were washed 3 times with PBS, the cover glass was mounted with a mounting solution (H-5501, Vector Laboratories, Cambridgeshire, UK) and immunofluorescence signals were detected using a fluorescence microscopy (Zeiss, Jena, Germany)."}, "mouse schwannoma cells [5]": {"tested_on": "mouse schwannoma cells", "test": "MTT cell viability assay in mouse schwannoma cells", "assay_type": "cell-based", "settings": "mouse schwannoma (NF2 mouse) cells, 10 μM, 48 h", "procedure": "as §1"}, "TGF-β signaling": {"tested_on": "TGF-β signaling", "test": "Smad2/3 phosphorylation after TGF-β1 in HEI-193 cells", "assay_type": "cell-based, human", "settings": "10 μM, TGF-β1 2 ng/ml added after 12 h for 12 h (FIG. 5D)", "procedure": "as §2"}, "HEI-193 cells [6]": {"tested_on": "HEI-193 cells", "test": "Tumorsphere formation assay, HEI-193 cells", "assay_type": "cell-based, human", "settings": "HEI-193 cells, 10 μM, DMEM/F12 medium", "procedure": "as §3"}},
  "note": "Peptide text beside a SMILES is read from it. * marks the point of attachment. Cbz = O=C(OCc1ccccc1)*",
  "data": [
    {"smiles": "CCN(CC)CCOc1ccc(-c2nnn(Cc3ccc(OCc4ccccc4)cc3)c2NC(=O)OC(C)(C)C)cc1", "note": "[NF-08001]", "values": [
      {"measurement": "cytotoxicity in normal cells (MTT)", "setting": "normal fibroblasts", "result": "exhibited normal cytotoxicity"},
      {"measurement": "cell viability (MTT)", "setting": "HEI-193 cells [1]", "result": "anti-proliferating effect"},
      {"measurement": "RKIP expression", "setting": "RKIP", "result": "induction of RKIP"},
      {"measurement": "interaction between TβR1 and RKIP", "setting": "[2]", "result": "inhibitory effect"}
    ]},
    {"smiles": "CC(C)C[C@@H](C=O)NC(=O)[C@H](CC(C)C)NC(=O)[C@H](CC(C)C)NC(=O)OCc1ccccc1", "note": "[MG312, reference compound] (Cbz-Leu-Leu-Leu-aldehyde)", "values": [
      {"measurement": "PRG-N-01/TEW7197-induced reduction in SOX2", "setting": "HEI-193 cells [3]", "result": "blocked"}
    ]},
    {"smiles": "CCC(=C/[C@H](C)C/C=C/C(C)=C/[C@@H](C)C(=O)[C@@H](C)[C@H](O)[C@@H](C)C/C(C)=C/C(=O)O)/C=C/[C@@H]1OC(=O)C=C[C@@H]1C", "note": "[leptomycin B, reference compound]", "values": [
      {"measurement": "PRG-N-01/TEW7197-induced reduction in SOX2", "setting": "HEI-193 cells [3]", "result": "blocked"}
    ]},
    {"smiles": "Cc1cccc(-c2[nH]c(CNc3ccccc3F)nc2-c2ccc3ncnn3c2)n1", "note": "[TEW7197, N-((4-([1,2,4]triazolo[1,5-a]pyridin-6-yl)-5-(6-methylpyridin-2-yl)-1H-imidazol-2-yl)methyl)-2-fluoroaniline, reference compound]", "values": [
      {"measurement": "schwannoma in a mouse model with NF2 syndrome", "setting": "schwannoma", "result": "inhibited schwannoma"},
      {"measurement": "tumorsphere formation", "setting": "mouse schwannoma cells [4]", "result": "weak inhibitory effect"},
      {"measurement": "localization of nuclear SOX2", "setting": "SOX2", "result": "moved to the cytosol"},
      {"measurement": "cell viability (MTT)", "setting": "mouse schwannoma cells [5]", "result": "suppressed cell viability"},
      {"measurement": "cell viability (MTT)", "setting": "HEI-193 cells [1]", "result": "suppressed cell viability"},
      {"measurement": "Smad2/3 phosphorylation in response to TGF-β", "setting": "TGF-β signaling", "result": "TGF-β signal inhibition"},
      {"measurement": "tumorsphere formation", "setting": "HEI-193 cells [6]", "result": "weak inhibitory effect"}
    ]}
  ]
}
